Reference: the NIST ThermoML archive (doi:10.1021/je700619q)

Assays:
[1] = 101 kPa, Liquid
[2] = Boiling temperature at pressure P; conditions: 101 kPa; Liquid; Distillation
[3] = xn = mol fraction of the nth substance listed; conditions: 101 kPa, Liquid

CCCCCCCCCCO [decan-1-ol]
[1]
Conditions	mass density [kg/m3]	speed of sound [m/s]	viscosity [mPa·s]
293 K	830.1	1408	13.41
303 K	822.1	1375.2	9.262
313 K	815.7	1344.8	6.515

Conditions	Boiling temperature at pressure P [°C]
[2]	229.80

CCCCCCCCCCO [decan-1-ol] + CCNCC
[3], x2 = 0
Conditions	mass density [kg/m3]	speed of sound [m/s]	viscosity [mPa·s]
293 K	830.1	1408	13.41
303 K	822.1	1375.2	9.262
313 K	815.7	1344.8	6.515

CCNCC [diethylamine]
[1]
Conditions	mass density [kg/m3]	speed of sound [m/s]	viscosity [mPa·s]
293 K	707.6	1140.8	0.3212
303 K	693.6	1089.6	0.275
313 K	678.4	1045	0.2577

Conditions	Boiling temperature at pressure P [°C]
[2]	55.30

CCNCC [diethylamine] + CCCCCCCCCCO
[3]
Conditions	mass density, 293 K [kg/m3]	mass density, 303 K [kg/m3]	mass density, 313 K [kg/m3]	speed of sound, 293 K [m/s]	speed of sound, 303 K [m/s]	speed of sound, 313 K [m/s]	viscosity, 293 K [mPa·s]	viscosity, 303 K [mPa·s]	viscosity, 313 K [mPa·s]
x1 = 0.0989	828.2	820.7	811.5	1383.2	1372.4	1332.8	11.04	7.825	5.532
x1 = 0.1963	824.8	814.6	806.3	1352	1350	1326	8.974	6.352	4.522
x1 = 0.3062	818.1	810	803.7	1347.2	1340	1316	7.105	4.977	3.558
x1 = 0.4062	814.4	808.4	802.1	1333.6	1326	1297.2	5.423	3.524	2.793
x1 = 0.4898	799	794.2	788.9	1321.8	1314	1290.8	3.948	2.857	2.244
x1 = 0.5973	795.6	790.7	782.9	1310.4	1302.4	1274.8	2.609	2.015	1.631
x1 = 0.6708	785.4	779.9	773.7	1302.4	1295.6	1258.4	1.925	1.652	1.257
x1 = 0.7388	779.4	773.3	769.7	1293.6	1278.8	1238.4	1.43	1.253	0.9795
x1 = 0.8012	770.2	763.6	755.5	1288.8	1266.4	1212	1.067	0.9298	0.7247
x1 = 0.8562	759.5	753.7	745.6	1247.2	1216.8	1164.8	0.7924	0.689	0.5424
x1 = 0.9031	741.4	737.6	728.2	1211.2	1176	1123.2	0.6052	0.5352	0.4368
x1 = 0.9601	720.7	709.2	694.8	1173.2	1130.4	1082	0.4396	0.3609	0.3265
x1 = 1	707.6	693.6	678.4	1140.8	1089.6	1045	0.3212	0.275	0.2577
